From US20040106626A1, “6-Membered unsaturated heterocyclic compounds useful for selective inhibition of the coagulation cascade” (Pharmacia Corporation, priority 2001, published 2004)
Where a name gives a salt, the structure may show the parent alone.

Legend:
Format in all cases: biochemical
Human factor Xa = target: T1, Human factor Xa (Homo sapiens, UniProt P00742); assay: Xa assay (chromogenic substrate S-2765); details: reported only as less than or greater than 30 uM; read-out: Factor Xa (II) IC50
T1 construct: purchased Enzyme Research Laboratories, South Bend Ind
T1 sequence (P00742 235-488 limits assumed): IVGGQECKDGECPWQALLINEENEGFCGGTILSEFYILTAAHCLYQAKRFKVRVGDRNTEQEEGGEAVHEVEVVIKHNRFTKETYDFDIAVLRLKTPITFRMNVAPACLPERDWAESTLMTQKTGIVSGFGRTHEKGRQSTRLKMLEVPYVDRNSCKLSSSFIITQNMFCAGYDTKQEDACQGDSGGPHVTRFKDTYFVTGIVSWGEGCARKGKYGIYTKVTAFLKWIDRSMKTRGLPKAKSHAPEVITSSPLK
T1 sequence (P00742 41-179 limits assumed): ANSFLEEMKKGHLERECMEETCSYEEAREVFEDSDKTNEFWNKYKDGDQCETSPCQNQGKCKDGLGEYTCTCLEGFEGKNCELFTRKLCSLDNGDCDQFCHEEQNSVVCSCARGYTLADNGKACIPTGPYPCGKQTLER
Description: Human factor Xa (0.3 nM) and 0.15 mM -a-Benzyloxycarbonyl-D-arginyl-L-glycyl-L-arginine-p-nitroaniline-dihydrochloride (S-2765) are added to a 96-well assay plate containing either inhibitor or buffer (50 mM Tris-HCl, pH 8.0, 100 mM NaCl, 0.1% BSA). The reaction, in a final volume of 100 ul is measured immediately at 405 nm to determine background absorbance. The plate is incubated at room temperature for 60 min, at which time the rate of hydrolysis of the substrate is measured by monitoring the reaction at 405 nm for the release of p-nitroaniline. Percent inhibition of Xa activity is calculated from OD405 nm value from the experimental and control sample.
Recombinant soluble TF, consisting of amino acids 1-219 of the mature protein sequence was expressed in E. coli and purified using a Mono Q Sepharose FPLC. Recombinant human VIIa was purchased from American Diagnostica, Greenwich CT and chromogenic substrate N-methylsulfonyl-D-phe-gly-arg-p-nitroaniline was prepared by American Peptide Company, Inc., Sunnyvale, Calif. Factor Xa was obtained from Enzyme Research Laboratories, South Bend Ind., thrombin from Calbiochem, La Jolla, Calif., and trypsin and L-BAPNA from Sigma, St. Louis Mo. The chromogenic substrates S-2765 and S-2238 were purchased from Chromogenix, Sweden.

[1] = target: T2, recombinant soluble tissue factor and recombinant human factor VIIa (TF-VIIa) (Homo sapiens, UniProt P08709); assay: TF-VIIa assay (chromogenic substrate hydrolysis); details: reported only as less than or greater than 0.1 uM
T2 construct: conversion of coagulation factor VII to VIIa by factor Xa; purchased American Diagnostica, Greenwich CT; host or cells: soluble TF made in house in E. coli
T2 sequence (P08709 213-466 limits assumed): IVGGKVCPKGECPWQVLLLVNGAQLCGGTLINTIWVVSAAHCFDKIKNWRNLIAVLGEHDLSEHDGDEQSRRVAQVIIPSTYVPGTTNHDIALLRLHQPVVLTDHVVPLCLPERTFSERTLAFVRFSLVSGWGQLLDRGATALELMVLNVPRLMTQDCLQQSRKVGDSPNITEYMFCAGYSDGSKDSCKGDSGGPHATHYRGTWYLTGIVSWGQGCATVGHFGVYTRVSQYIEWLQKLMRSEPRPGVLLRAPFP
T2 sequence (P08709 61-212 limits assumed): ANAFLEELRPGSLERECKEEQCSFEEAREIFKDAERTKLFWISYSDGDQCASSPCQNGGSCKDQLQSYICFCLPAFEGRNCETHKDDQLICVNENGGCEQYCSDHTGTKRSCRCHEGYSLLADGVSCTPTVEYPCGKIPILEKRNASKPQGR
T2 sequence (P13726 33-251 partner limits assumed): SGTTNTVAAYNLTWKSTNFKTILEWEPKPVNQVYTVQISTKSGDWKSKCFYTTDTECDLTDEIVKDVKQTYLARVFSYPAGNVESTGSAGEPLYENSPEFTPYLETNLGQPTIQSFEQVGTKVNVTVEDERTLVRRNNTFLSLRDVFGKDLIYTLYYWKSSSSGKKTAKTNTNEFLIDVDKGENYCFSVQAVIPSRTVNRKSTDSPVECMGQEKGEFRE
Description: In this assay 100 nM recombinant soluble tissue factor and 2 nM recombinant human factor VIIa are added to a 96-well assay plate containing 0.4 mM of the substrate, N-methylsulfonyl-D-phe-gly-arg-p-nitroaniline and either inhibitor or buffer (5 mM CaCl2, 50 mM Tris-HCl, pH 8.0, 100 mM NaCl, 0.1% BSA). […] Percent inhibition of TF-VIIa activity is calculated from OD405 nm value from the experimental and control sample.
(§1) Recombinant human VIIa was purchased from American Diagnostica, Greenwich CT and chromogenic substrate N-methylsulfonyl-D-phe-gly-arg-p-nitroaniline was prepared by American Peptide Company, Inc., Sunnyvale, Calif. Factor Xa was obtained from Enzyme Research Laboratories, South Bend Ind., thrombin from Calbiochem, La Jolla, Calif., and trypsin and L-BAPNA from Sigma, St. Louis Mo.

Human thrombin = target: T3, Human thrombin (Homo sapiens, UniProt P00734); assay: Thrombin assay (chromogenic substrate); details: reported only as less than or greater than 30 uM; read-out: Thrombin (II) IC50
T3 construct: converts prothrombin (II) to thrombin (IIa); purchased Calbiochem, La Jolla, Calif
Description: Percent inhibition of thrombin activity is calculated from OD405 nm value from the experimental and control sample.
as §1

Compound	IC50 (Human factor Xa) [µM]	IC50 [1] [µM]	IC50 (Human thrombin) [µM]
COC(=O)c1cc(N)cc(-c2ncc(NC(C)C)c(=O)n2CC(=O)NCc2ccc(C(=N)N)cc2)c1 [Example 1]	> 30	< 0.1	> 30
CC(C)Nc1cnc(-c2cc(N)cc(C(=O)O)c2)n(CC(=O)NCc2ccc(C(=N)N)cc2)c1=O [Example 2]	> 30	< 0.1	> 30
CC(C)CNC(=O)c1cc(N)cc(-c2cnc(NC(C)C)c(=O)n2CC(=O)NCc2ccc(C(=N)N)cc2)c1 [Example 5]	> 30	< 0.1	< 30
CC(C)Nc1ncc(-c2cc(N)cc(C(=O)NCc3cccc(F)c3)c2)n(CC(=O)NCc2ccc(C(=N)N)cc2)c1=O [Example 8]	> 30	< 0.1	> 30
CC(C)Nc1ncc(-c2cc(N)cc(C(=O)NC3CCCCCC3)c2)n(CC(=O)NCc2ccc(C(=N)N)cc2)c1=O [Example 9]	> 30	< 0.1	< 30
CC(C)Nc1ncc(-c2cc(N)cc(C(=O)NC3CCCC3)c2)n(CC(=O)NCc2ccc(C(=N)N)cc2)c1=O [Example 11]	< 30	< 0.1	< 30
CC(C)Nc1ncc(-c2cc(N)cc(C(=O)NC[Si](C)(C)C)c2)n(CC(=O)NCc2ccc(C(=N)N)cc2)c1=O [Example 12]	> 30	< 0.1	> 30
CC(C)Nc1ncc(-c2cc(N)cc(C(=O)NC(C)(C)c3ccccc3)c2)n(CC(=O)NCc2ccc(C(=N)N)cc2)c1=O [Example 13]	> 30	< 0.1	< 30
COC(=O)c1cc(N)cc(-c2cnc(NC(C)C)c(=O)n2CC(=O)NCc2c(F)c(O)c(C(=N)N)c(F)c2F)c1 [Example 20]	> 30	> 0.1	> 30
COC(=O)c1cc(N)cc(-c2cnc(NC(C)C)c(=O)n2CC(=O)NCc2ccc(C(=N)N)cc2)c1 [Example 21, Methyl 3-amino-5-[1-[2-({4-[amino(imino)methyl]benzyl}amino)-2-oxoethyl]-5-(isopropylamino)-6-oxo-1,6-dihydropyrazin-2-yl]benzoate Trifluoroacetate]	> 30	< 0.1	> 30
COC(=O)Cc1cc(N)c(OC)c(-c2cnc(NC(C)C)c(=O)n2CC(=O)NCc2ccc(C(=N)N)cc2)c1 [Example 22, Methyl {3-amino-5-[1-[2-({4-[amino(imino)methyl]benzyl}amino)-2-oxoethyl]-5-(isopropylamino)-6-oxo-1,6-dihydropyrazin-2-yl]-4-methoxyphenyl}acetate]	> 30	> 0.1	> 30
COc1c(N)cc(CC(=O)O)cc1-c1cnc(NC(C)C)c(=O)n1CC(=O)NCc1ccc(C(=N)N)cc1 [Example 23, {3-Amino-5-[1-[2-({4-[amino(imino)methyl]benzyl}amino)-2-oxoethyl]-5-(isopropylamino)-6-oxo-1,6-dihydropyrazin-2-yl]-4-methoxyphenyl}acetic Acid]	> 30	> 0.1	> 30
CC(C)Nc1ncc(-c2cc(N)cc(C(=O)NCc3ccccc3)c2)n(CC(=O)NCc2ccc(C(=N)N)cc2)c1=O [Example 25]	> 30	< 0.1	< 30
COCCNC(=O)c1cc(N)cc(-c2cnc(NC(C)C)c(=O)n2CC(=O)NCc2ccc(C(=N)N)cc2)c1 [Example 26, 3-amino-5-[1-[2-({4-[amino(imino)methyl]benzyl}amino)-2-oxoethyl]-5-(isopropylamino)-6-oxo-1,6-dihydropyrazin-2-yl]-N-(2-methoxyethyl)benzamide]	> 30	< 0.1	> 30
CC(C)CNC(=O)c1cc(N)cc(-c2cnc(NC(C)C)c(=O)n2CC(=O)NCc2ccc(C(=N)N)cc2)c1 [Example 27]	> 30	< 0.1	> 30
CC(C)Nc1ncc(-c2cc(N)cc(C(=O)NCCO)c2)n(CC(=O)NCc2ccc(C(=N)N)cc2)c1=O [Example 30]	> 30	> 0.1	> 30
CC(C)Nc1nc(Cl)c(-c2cc(N)ccc2SCc2ccccc2)n(CC(=O)NCc2ccc(C(=N)N)cc2)c1=O [Example 31]	> 30	> 0.1	> 30
CC(C)Nc1ncc(-c2cc(N)cc(C(=O)NCC(=O)O)c2)n(CC(=O)NCc2ccc(C(=N)N)cc2)c1=O [Example 32]	> 30	> 0.1	> 30
CC(C)Nc1ncc(-c2cc(N)cc(C(=O)NCCc3ccc(F)cc3)c2)n(CC(=O)NCc2ccc(C(=N)N)cc2)c1=O [Example 33]	> 30	< 0.1	> 30
CNc1ncc(-c2cc(N)cc(C(=O)OC)c2)n(CC(=O)NCc2ccc(C(=N)N)cc2)c1=O [Example 36]	> 30	> 0.1	> 30

Compound	IC50 (Human factor Xa) [µM]	IC50 [1] [µM]	IC50 (Human thrombin) [µM]
CNc1ncc(-c2cc(N)cc(C(=O)O)c2)n(CC(=O)NCc2ccc(C(=N)N)cc2)c1=O [Example 37]	> 30	> 0.1	> 30
CNC(=O)c1cc(N)cc(-c2cnc(NC(C)C)c(=O)n2CC(=O)NCc2ccc(C(=N)N)cc2)c1 [Example 38]	> 30	< 0.1	
COCCNC(=O)c1cc(N)cc(-c2cnc(NC(C)C)c(=O)n2CC(=O)NCc2ccc(C(=N)N)cc2)c1 [Example 39]	> 30	< 0.1	
CC(C)Nc1ncc(-c2cc(N)cc(C(=O)NCCN3CCOCC3)c2)n(CC(=O)NCc2ccc(C(=N)N)cc2)c1=O [Example 40]	> 30	< 0.1	
CC(C)Nc1ncc(-c2cc(N)cc(C(=O)NCCN3CCCC3)c2)n(CC(=O)NCc2ccc(C(=N)N)cc2)c1=O [Example 41]	> 30	< 0.1	
CONC(=O)c1cc(N)cc(-c2cnc(NC(C)C)c(=O)n2CC(=O)NCc2ccc(C(=N)N)cc2)c1 [Example 42]	> 30	< 0.1	
CC(C)Nc1ncc(-c2cc(N)cc(C(=O)NC(C)(CO)CO)c2)n(CC(=O)NCc2ccc(C(=N)N)cc2)c1=O [Example 43]	> 30	< 0.1	
CCOC(=O)c1cc(N)cc(-c2cnc(NC(C)C)c(=O)n2CC(=O)NCc2ccc(C(=N)N)cc2)c1 [Example 44]	> 30	< 0.1	
CC(C)Nc1ncc(-c2cc(N)cc(C(=O)NC(C)(C)CCO)c2)n(CC(=O)NCc2ccc(C(=N)N)cc2)c1=O [Example 45]	> 30	< 0.1	
CC(C)Nc1ncc(-c2cc(N)cc(C(N)=O)c2)n(CC(=O)NCc2ccc(C(=N)N)cc2)c1=O [Example 47]	> 30	< 0.1	
COC(=O)c1cc(N)cc(-c2cnc(NC(C)C)c(=O)n2CC(=O)NCc2c(F)c(F)c(C(=N)N)c(F)c2F)c1 [Example 48]	> 30	> 0.1	> 30
CCCCN(CCCC)c1cc(N)cc(-c2cnc(NC(C)C)c(=O)n2CC(=O)NCc2ccc(C(=N)N)cc2)c1 [Example 149]		> 0.1	
CC(C)Nc1ncc(-c2cc(N)cc(NC(=O)C3CCNCC3)c2)n(CC(=O)NCc2ccc(C(=N)N)cc2)c1=O [Example 150]		< 0.1	
CC(C)Nc1ncc(-c2cc(N)cc(NC(=O)C3CCCNC3)c2)n(CC(=O)NCc2ccc(C(=N)N)cc2)c1=O (stereo not drawn) [Example 151]		< 0.1	
CC(C)Nc1ccc(-c2cc(N)cc(N)c2)n(CC(=O)NCc2ccc(C(=N)N)cc2)c1=O [Example 163]		> 0.1	
N=C(N)c1c(O)c(F)c(CNC(=O)Cn2c(-c3cc(N)cc(C(F)(F)F)c3)cnc(NC3CC3)c2=O)c(F)c1F [Example 243]		> 0.1	> 30
CC[C@@H](C)NC(=O)c1cc(N)cc(-c2cnc(NC(C)C)c(=O)n2CC(=O)NCc2c(O)cc(C(=N)N)cc2OCC(=O)O)c1 [Example 244]		> 0.1	> 30
CC[C@@H](C)NC(=O)c1cc(N)cc(-c2cnc(N[C@@H](C)CO)c(=O)n2CC(=O)NCc2ccc(C(=N)N)cc2)c1 [Example 248]		< 0.1	< 30
CC[C@@H](C)NC(=O)c1cc(N)cc(-c2cnc(NC(C)C)c(=O)n2CC(=O)NCc2c(O)cc(C(=N)N)cc2OCc2cccnc2)c1 [Example 255]		> 0.1	> 30
